Assay results reported in US20140213513A1 (Sanofi, priority 2012, published 2014).
*1 amine or outer side, *2 acyl side, *3 side chain or, on linkers, in order; H or OH if unused. Where a SMILES comes first, the peptide text is derived from it. Side-chain parts run from the residue outwards. [ ]: non-standard residue; d: D form. The star is where a group is joined. γGlu = O=C(O)[C@H](CCC(=O)[*:2])N[*:1]; Stearoyl = CCCCCCCCCCCCCCCCCC(=O)*; Palmitoyl = CCCCCCCCCCCCCCCC(=O)*; Aib = CC(C)(N)C(=O)O

What was measured:
Type in all cases: cell-based
Conditions in all cases: Table 7; cAMP formation
[1] = molecular target: T1, human GIP receptor (hGIP R) (Homo sapiens, UniProt P48546); assay: cAMP response of HEK-293 cells stably expressing human GIP receptor (HTRF)
T1 construct: expressed in transfected cells
T1 sequence (P48546 22-466): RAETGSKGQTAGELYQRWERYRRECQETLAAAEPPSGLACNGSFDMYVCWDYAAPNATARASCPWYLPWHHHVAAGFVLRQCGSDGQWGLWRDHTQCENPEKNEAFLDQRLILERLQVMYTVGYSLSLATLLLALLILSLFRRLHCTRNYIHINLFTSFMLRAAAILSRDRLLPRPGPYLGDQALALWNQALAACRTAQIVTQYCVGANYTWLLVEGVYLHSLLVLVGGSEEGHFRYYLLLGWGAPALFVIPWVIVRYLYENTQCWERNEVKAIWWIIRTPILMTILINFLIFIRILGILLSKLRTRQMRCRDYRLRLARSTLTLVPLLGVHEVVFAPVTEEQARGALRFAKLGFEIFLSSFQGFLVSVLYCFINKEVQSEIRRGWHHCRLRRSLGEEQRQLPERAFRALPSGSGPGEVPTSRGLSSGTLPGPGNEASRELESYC
Method in brief: (§1)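 Intracellular cAMP is quantified by HTRF following a 30-minute room-temperature incubation of cell suspensions (400000 cells/ml) with test compound in HBSS, 20 mM HEPES, 0.1% BSA and 2 mM IBMX.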

[2] = molecular target: T2, human glucagon receptor (hGLUC R) (Homo sapiens, UniProt P47871); assay: cAMP response of HEK-293 cells stably expressing human glucagon receptor (HTRF)
T2 construct: expressed in transfected cells
T2 sequence (P47871 26-477): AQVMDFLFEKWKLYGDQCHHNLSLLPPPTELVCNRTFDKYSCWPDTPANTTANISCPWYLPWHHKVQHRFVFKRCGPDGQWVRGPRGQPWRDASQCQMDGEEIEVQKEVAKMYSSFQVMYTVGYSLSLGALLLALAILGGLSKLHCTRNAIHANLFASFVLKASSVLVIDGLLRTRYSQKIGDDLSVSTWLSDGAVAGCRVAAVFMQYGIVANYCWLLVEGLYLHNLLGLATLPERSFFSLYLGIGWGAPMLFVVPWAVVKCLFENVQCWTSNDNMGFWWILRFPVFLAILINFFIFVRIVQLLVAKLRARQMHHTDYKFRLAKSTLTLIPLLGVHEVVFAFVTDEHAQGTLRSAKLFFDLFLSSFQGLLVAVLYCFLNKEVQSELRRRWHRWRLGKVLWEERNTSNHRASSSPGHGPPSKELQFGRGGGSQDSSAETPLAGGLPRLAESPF
Method in brief: as §1

[3] = molecular target: T3, human GLP-1 receptor (hGLP-1 R) (Homo sapiens, UniProt P43220); assay: cAMP response of HEK-293 cells stably expressing human GLP-1 receptor (HTRF)
T3 construct: expressed in transfected cells
T3 sequence (P43220 24-463): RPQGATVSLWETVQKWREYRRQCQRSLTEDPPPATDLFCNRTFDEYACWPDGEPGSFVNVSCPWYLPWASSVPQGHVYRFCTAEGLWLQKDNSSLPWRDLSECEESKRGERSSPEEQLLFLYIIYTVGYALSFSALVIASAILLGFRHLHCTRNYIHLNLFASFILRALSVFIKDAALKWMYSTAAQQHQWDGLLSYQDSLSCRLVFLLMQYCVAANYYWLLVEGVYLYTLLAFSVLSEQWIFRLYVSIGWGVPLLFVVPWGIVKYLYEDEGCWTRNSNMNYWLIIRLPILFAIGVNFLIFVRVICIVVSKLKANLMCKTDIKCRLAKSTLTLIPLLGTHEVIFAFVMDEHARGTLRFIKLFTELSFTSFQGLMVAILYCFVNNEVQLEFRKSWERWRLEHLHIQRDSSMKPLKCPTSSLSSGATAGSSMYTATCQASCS
Method in brief: as §1

Row | SMILES | EC50 [1] [nM] | EC50 [2] [nM] | EC50 [3] [nM]
1 | CCCCCCCCCCCCCCCCCC(=O)N[C@@H](CCC(=O)NCCCC[C@H](NC(=O)[C@H](CCC(N)=O)NC(=O)[C@@H](NC(=O)[C@H](CO)NC(=O)[C@H](CC(C)C)NC(=O)[C@H](CC(=O)O)NC(=O)[C@H](CO)NC(=O)[C@@H](NC(=O)[C@H](Cc1ccccc1)NC(=O)[C@@H](NC(=O)CNC(=O)[C@H](CCC(N)=O)NC(=O)C(C)(C)NC(=O)[C@@H](N)Cc1ccc(O)cc1)[C@@H](C)O)[C@@H](C)O)[C@@H](C)CC)C(=O)N[C@@H](CC(=O)O)C(=O)N[C@@H](CCC(=O)O)C(=O)N[C@@H](CCC(N)=O)C(=O)N[C@@H](CCCNC(=N)N)C(=O)N[C@@H](C)C(=O)N[C@@H](CCCCN)C(=O)N[C@@H](CCC(=O)O)C(=O)N[C@@H](Cc1ccccc1)C(=O)N[C@H](C(=O)N[C@@H](CCC(=O)O)C(=O)N[C@@H](Cc1c[nH]c2ccccc12)C(=O)N[C@@H](CC(C)C)C(=O)N[C@@H](CCCCN)C(=O)N[C@@H](C)C(=O)NCC(=O)NCC(=O)N1CCC[C@H]1C(=O)N[C@@H](CO)C(=O)N[C@@H](CO)C(=O)NCC(=O)N[C@@H](C)C(=O)N1CCC[C@H]1C(=O)N1CCC[C@H]1C(=O)N1CCC[C@H]1C(=O)N[C@@H](CO)C(N)=O)[C@@H](C)CC)C(=O)O [SEQ ID NO: 31, Y-Aib-Q-G-T-F-T-S-D-L-S-I-Q-K(yE-x70)-DEQRAKEFIEWLKAGGPSSGAPPPS-NH2] | 0.0131 | 0.0041 | 0.0148
2 | CCCCCCCCCCCCCCCC(=O)N[C@@H](CCC(=O)NCCCC[C@H](NC(=O)[C@H](CCC(N)=O)NC(=O)[C@@H](NC(=O)[C@H](CO)NC(=O)[C@H](CC(C)C)NC(=O)[C@H](CC(=O)O)NC(=O)[C@H](CO)NC(=O)[C@@H](NC(=O)[C@H](Cc1ccccc1)NC(=O)[C@@H](NC(=O)CNC(=O)[C@H](CCC(N)=O)NC(=O)C(C)(C)NC(=O)[C@@H](N)Cc1ccc(O)cc1)[C@@H](C)O)[C@@H](C)O)[C@@H](C)CC)C(=O)N[C@@H](CCC(=O)O)C(=O)N[C@@H](CCCCN)C(=O)N[C@@H](CCCNC(=N)N)C(=O)N[C@@H](C)C(=O)N[C@@H](C)C(=O)N[C@@H](Cc1c[nH]cn1)C(=O)N[C@@H](CCC(=O)O)C(=O)N[C@@H](Cc1ccccc1)C(=O)N[C@H](C(=O)N[C@@H](CCC(=O)O)C(=O)N[C@@H](Cc1c[nH]c2ccccc12)C(=O)N[C@@H](CC(C)C)C(=O)N[C@@H](CCCCN)C(=O)N[C@@H](CC(N)=O)C(=O)N[C@H](C(=O)NCC(=O)N1CCC[C@H]1C(=O)N[C@@H](CO)C(=O)N[C@@H](CO)C(=O)NCC(=O)N[C@@H](C)C(=O)N1CCC[C@H]1C(=O)N1CCC[C@H]1C(=O)N1CCC[C@H]1C(=O)N[C@@H](CO)C(N)=O)[C@@H](C)O)[C@@H](C)CC)C(=O)O [SEQ ID NO: 36, Y-Aib-Q-G-T-F-T-S-D-L-S-I-Q-K(yE-x53)-EKRAAHEFIEWLKNTGPSSGAPPPS-NH2] (H-Y[Aib]QGTFTSDLSIQK([γGlu-Palmitoyl])EKRAAHEFIEWLKNTGPSSGAPPPS-NH2) | 0.0301 | 0.0395 | 0.0052
3 | CCCCCCCCCCCCCCCC(=O)N[C@@H](CCC(=O)NCCCC[C@H](NC(=O)[C@H](CCC(N)=O)NC(=O)[C@@H](NC(=O)[C@H](CO)NC(=O)[C@H](CC(C)C)NC(=O)[C@H](CC(=O)O)NC(=O)[C@H](CO)NC(=O)[C@@H](NC(=O)[C@H](Cc1ccccc1)NC(=O)[C@@H](NC(=O)CNC(=O)[C@H](CCC(N)=O)NC(=O)C(C)(C)NC(=O)[C@@H](N)Cc1ccc(O)cc1)[C@@H](C)O)[C@@H](C)O)[C@@H](C)CC)C(=O)N[C@@H](CCC(=O)O)C(=O)N[C@@H](CCCCN)C(=O)N[C@@H](CCCNC(=N)N)C(=O)NC(C)(C)C(=O)N[C@@H](C)C(=O)NC(C)(C)C(=O)N[C@@H](CCC(=O)O)C(=O)N[C@@H](Cc1ccccc1)C(=O)N[C@H](C(=O)N[C@@H](CCC(=O)O)C(=O)N[C@@H](Cc1c[nH]c2ccccc12)C(=O)N[C@@H](CC(C)C)C(=O)N[C@@H](CCCCN)C(=O)N[C@@H](CC(N)=O)C(=O)N[C@H](C(=O)NCC(=O)N1CCC[C@H]1C(=O)N[C@@H](CO)C(=O)N[C@@H](CO)C(=O)NCC(=O)N[C@@H](C)C(=O)N1CCC[C@H]1C(=O)N1CCC[C@H]1C(=O)N1CCC[C@H]1C(=O)N[C@@H](CO)C(N)=O)[C@@H](C)O)[C@@H](C)CC)C(=O)O [SEQ ID NO: 11, Y-Aib-Q-G-T-F-T-S-D-L-S-I-Q-K(yE-x53)-E-K-R-Aib-A-Aib-E-F-I-E-W-L-K-N-T-G-P-S-S-G-A-P-P-P-S-NH2] (H-Y[Aib]QGTFTSDLSIQK([γGlu-Palmitoyl])EKR[Aib]A[Aib]EFIEWLKNTGPSSGAPPPS-NH2) | 0.0144 | 0.0669 | 0.0038
4 | CCCCCCCCCCCCCCCC(=O)N[C@@H](CCC(=O)NCCCC[C@H](NC(=O)[C@H](CCC(N)=O)NC(=O)[C@H](CCCCN)NC(=O)[C@H](CO)NC(=O)[C@H](CC(C)C)NC(=O)[C@H](CC(=O)O)NC(=O)[C@H](CO)NC(=O)[C@@H](NC(=O)[C@H](Cc1ccccc1)NC(=O)[C@@H](NC(=O)CNC(=O)[C@H](CCC(=O)O)NC(=O)C(C)(C)NC(=O)[C@@H](N)Cc1ccc(O)cc1)[C@@H](C)O)[C@@H](C)O)C(=O)N[C@@H](CC(=O)O)C(=O)N[C@@H](CCCCN)C(=O)N[C@@H](CCCNC(=N)N)C(=O)N[C@@H](C)C(=O)N[C@@H](C)C(=O)N[C@@H](CCC(N)=O)C(=O)N[C@@H](CC(=O)O)C(=O)N[C@@H](Cc1ccccc1)C(=O)N[C@H](C(=O)N[C@@H](CCC(=O)O)C(=O)N[C@@H](Cc1c[nH]c2ccccc12)C(=O)N[C@@H](CC(C)C)C(=O)N[C@@H](CCCCN)C(=O)N[C@@H](CC(N)=O)C(=O)NCC(=O)NCC(=O)N1CCC[C@H]1C(=O)N[C@@H](CO)C(=O)N[C@@H](CO)C(=O)NCC(=O)N[C@@H](C)C(=O)N1CCC[C@H]1C(=O)N1CCC[C@H]1C(=O)N1CCC[C@H]1C(=O)N[C@@H](CO)C(N)=O)[C@@H](C)CC)C(=O)O [SEQ ID NO: 30, Y-Aib-E-G-T-F-T-S-D-L-S-K-Q-K(yE-x53)-DKRAAQDFIEWLKNGGPSSGAPPPS-NH2] (H-Y[Aib]EGTFTSDLSKQK([γGlu-Palmitoyl])DKRAAQDFIEWLKNGGPSSGAPPPS-NH2) | 0.0163 | 1.45 | 0.005
5 | CCCCCCCCCCCCCCCC(=O)N[C@@H](CCC(=O)NCCCC[C@H](NC(=O)[C@H](CCC(N)=O)NC(=O)[C@@H](NC(=O)[C@H](CO)NC(=O)[C@H](CC(C)C)NC(=O)[C@H](CC(=O)O)NC(=O)[C@H](CO)NC(=O)[C@@H](NC(=O)[C@H](Cc1ccccc1)NC(=O)[C@@H](NC(=O)CNC(=O)[C@H](CCC(N)=O)NC(=O)C(C)(C)NC(=O)[C@@H](N)Cc1ccc(O)cc1)[C@@H](C)O)[C@@H](C)O)[C@@H](C)CC)C(=O)N[C@@H](CCC(=O)O)C(=O)N[C@@H](CCCCN)C(=O)NC(C)(C)C(=O)N[C@@H](C)C(=O)N[C@@H](C)C(=O)NC(C)(C)C(=O)N[C@@H](CCC(=O)O)C(=O)N[C@@H](Cc1ccccc1)C(=O)N[C@H](C(=O)N[C@@H](CCC(=O)O)C(=O)N[C@@H](Cc1c[nH]c2ccccc12)C(=O)N[C@@H](CC(C)C)C(=O)N[C@@H](CCCCN)C(=O)N[C@@H](CC(N)=O)C(=O)N[C@H](C(=O)NCC(=O)N1CCC[C@H]1C(=O)N[C@@H](CO)C(=O)N[C@@H](CO)C(=O)NCC(=O)N[C@@H](C)C(=O)N1CCC[C@H]1C(=O)N1CCC[C@H]1C(=O)N1CCC[C@H]1C(=O)N[C@@H](CO)C(N)=O)[C@@H](C)O)[C@@H](C)CC)C(=O)O [SEQ ID NO: 9, Y-Aib-Q-G-T-F-T-S-D-L-S-I-Q-K(yE-x53)-E-K-Aib-A-A-Aib-E-F-I-E-W-L-K-N-T-G-P-S-S-G-A-P-P-P-S-NH2] (H-Y[Aib]QGTFTSDLSIQK([γGlu-Palmitoyl])EK[Aib]AA[Aib]EFIEWLKNTGPSSGAPPPS-NH2) | 0.009 | 0.445 | 0.0055
6 | CCCCCCCCCCCCCCCCCC(=O)N[C@@H](CCC(=O)NCCCC[C@H](NC(=O)[C@H](CCC(N)=O)NC(=O)[C@@H](NC(=O)[C@H](CO)NC(=O)[C@H](CC(C)C)NC(=O)[C@H](CC(=O)O)NC(=O)[C@H](CO)NC(=O)[C@@H](NC(=O)[C@H](Cc1ccccc1)NC(=O)[C@@H](NC(=O)CNC(=O)[C@H](CCC(=O)O)NC(=O)C(C)(C)NC(=O)[C@@H](N)Cc1ccc(O)cc1)[C@@H](C)O)[C@@H](C)O)[C@@H](C)CC)C(=O)N[C@@H](CCC(=O)O)C(=O)N[C@@H](CO)C(=O)N[C@@H](CCCCN)C(=O)N[C@@H](C)C(=O)N[C@@H](C)C(=O)N[C@@H](Cc1c[nH]cn1)C(=O)N[C@@H](CCC(=O)O)C(=O)N[C@@H](Cc1ccccc1)C(=O)N[C@H](C(=O)N[C@@H](CCC(=O)O)C(=O)N[C@@H](Cc1c[nH]c2ccccc12)C(=O)N[C@@H](CC(C)C)C(=O)N[C@@H](CCCCN)C(=O)N[C@@H](C)C(=O)NCC(=O)NCC(=O)N1CCC[C@H]1C(=O)N[C@@H](CO)C(=O)N[C@@H](CO)C(=O)NCC(=O)N[C@@H](C)C(=O)N1CCC[C@H]1C(=O)N1CCC[C@H]1C(=O)N1CCC[C@H]1C(=O)N[C@@H](CO)C(=O)N[C@@H](CCCCN)C(N)=O)[C@@H](C)CC)C(=O)O [SEQ ID NO: 58, Y-Aib-E-G-T-F-T-S-D-L-S-I-Q-K(yE-x70)-ESKAAHEFIEWLKAGGPSSGAPPPSK-NH2] (H-Y[Aib]EGTFTSDLSIQK([γGlu-Stearoyl])ESKAAHEFIEWLKAGGPSSGAPPPSK-NH2) | 0.0086 | 16 | 0.0125
